# Source: US8093258B2, “Use of urokinase inhibitors for the treatment and/or prevention of neuropathological diseases” (Wilex AG, priority 2005, dated 2012)
# What was measured:
# FALS mice (G93A) = test: Treatment of G93A FALS mice with uPA inhibitor WX-C340 (survival analysis, disease progression); type: in vivo; conditions: 10 mg WX-C340 i.p. daily
# Description: Kaplan-Meyer-Analysis, G93A-ALS-model: Comparison of the survival of control group animals (N=42) with animals treated with 10 mg/kg WX-C340 i.p. Daily (treatment start day 30, n=18).
# FALS mice (G93A) begin to show behavioral symptoms at about 90 days of age while G85R mice develop symptoms at about 8 months of age. The initial symptoms is a high frequency resting tremor. This progresses to gait abnormalities and uncoordinated movements. Later the mice begin to show paralysis of the hind limbs, eventually progressing to paralysis of the forelimbs and finally to complete paralysis. Animals were sacrificed when they were unable to roll over within 10 seconds of being pushed on their side. This time point is taken as the time of death.
# ALS = ALS treatment with riluzole; cited from earlier work
Structure (SMILES),progression of disease (onset of paralysis of the front legs) (FALS mice (G93A)),"survival of the animals (Kaplan-Meyer analysis, FIG. 4) (FALS mice (G93A); treatment start day 30, versus control group)",prolongation of life (ALS)
"Cl.N=C(N)Nc1ccc(CNC(=O)CNC(=O)[C@@H](CO)NS(=O)(=O)Cc2ccc(Cl)cc2)cc1 [WX-C340, 4-chlorobenzyl-sulfonyl-(D)-Ser-Gly-(4-guanidinobenzyl)amide hydrochloride]",delays the progression of disease,significantly improves the survival,–
Nc1nc2ccc(OC(F)(F)F)cc2s1 [riluzole],–,–,ca. 3 months
